Results on 39 compounds are retold here after ChEMBL document CHEMBL3612003, “The interaction of 4-thiazolidinone derivatives containing indolin-2-one moiety with P-glycoprotein studied using K562 cell lines” (Eur J Med Chem, 2015).

The target in experiment [1] is ATP-dependent translocase ABCB1 (Homo sapiens, UniProt P08183). Put plainly: Inhibition of P-glycoprotein in human drug-resistant K562/ADR cells assessed as reduction in P-gp mediated rhodamine 123 efflux by spectrofluorometry. Format: cell-based.
ATP-dependent translocase ABCB1, sequence (P08183 whole entry): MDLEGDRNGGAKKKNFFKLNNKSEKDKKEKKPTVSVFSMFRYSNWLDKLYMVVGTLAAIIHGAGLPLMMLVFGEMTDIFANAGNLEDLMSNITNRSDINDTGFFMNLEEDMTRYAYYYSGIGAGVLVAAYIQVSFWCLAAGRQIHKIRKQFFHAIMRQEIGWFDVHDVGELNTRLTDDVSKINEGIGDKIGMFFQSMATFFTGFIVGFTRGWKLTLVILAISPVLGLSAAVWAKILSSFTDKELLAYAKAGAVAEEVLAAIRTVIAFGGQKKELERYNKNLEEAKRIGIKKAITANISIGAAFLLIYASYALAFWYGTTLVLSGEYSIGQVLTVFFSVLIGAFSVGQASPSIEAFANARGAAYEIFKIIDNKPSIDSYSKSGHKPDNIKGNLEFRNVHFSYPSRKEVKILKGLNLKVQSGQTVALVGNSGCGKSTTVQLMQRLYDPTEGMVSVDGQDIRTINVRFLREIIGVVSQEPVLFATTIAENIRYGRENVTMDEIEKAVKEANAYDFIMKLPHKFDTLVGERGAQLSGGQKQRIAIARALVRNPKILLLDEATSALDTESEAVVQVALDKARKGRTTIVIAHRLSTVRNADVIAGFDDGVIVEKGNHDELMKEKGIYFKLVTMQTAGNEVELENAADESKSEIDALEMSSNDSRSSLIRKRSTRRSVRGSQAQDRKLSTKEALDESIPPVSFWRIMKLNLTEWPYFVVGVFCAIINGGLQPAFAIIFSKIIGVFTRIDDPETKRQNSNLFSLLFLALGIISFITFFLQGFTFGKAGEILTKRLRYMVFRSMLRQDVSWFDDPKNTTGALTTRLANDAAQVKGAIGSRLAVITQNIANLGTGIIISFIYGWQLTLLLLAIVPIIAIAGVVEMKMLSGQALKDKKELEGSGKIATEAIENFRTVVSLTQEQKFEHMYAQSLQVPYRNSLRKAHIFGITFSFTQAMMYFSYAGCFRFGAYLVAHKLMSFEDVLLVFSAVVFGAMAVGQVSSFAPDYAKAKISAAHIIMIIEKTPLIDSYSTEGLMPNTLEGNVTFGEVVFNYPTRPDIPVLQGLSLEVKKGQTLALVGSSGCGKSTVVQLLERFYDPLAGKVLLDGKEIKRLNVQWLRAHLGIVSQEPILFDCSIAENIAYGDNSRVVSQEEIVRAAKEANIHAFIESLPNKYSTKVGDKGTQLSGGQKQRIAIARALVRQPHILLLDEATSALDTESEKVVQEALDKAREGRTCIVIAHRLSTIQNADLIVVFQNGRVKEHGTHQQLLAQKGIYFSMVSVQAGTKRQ
Experiment [2] is described as follows: Cytotoxicity against human drug-resistant K562/ADR cells expressing high levels of P-glycoprotein assessed as reduction in cell viability incubated for 48 hrs by SRB assay. Format: functional, cell-based.
Experiment [3] deals with K562. Put plainly: Cytotoxicity against human drug-sensitive K562 cells assessed as reduction in cell viability incubated for 48 hrs by SRB assay. Format: functional, cell-based. The note with it: K562, 48 h.
Experiment [4] deals with K562. Description: Resistance index, ratio of IC50 for drug-resistant human K562/ADR cells to IC50 for drug-sensitive human K562 cells. Type of experiment: functional.

The Ki is the dissociation constant of the complex between target and ligand, obtained from inhibition or displacement. In general, IC50 refers to the midpoint of a concentration-inhibition curve.

For the compound `CCN(CC)CCCn1c(=O)/c(=C/c2ccccc2O)s/c1=C1/C(=O)Nc2ccc(C)cc21`, the Ki in experiment [1] was found to be 1.71 µM. Besides, the figures for the IC50 in experiment [2] and in experiment [3] were 30.6 µM and 14.8 µM, respectively. The “Ratio IC50” value in experiment [4] was found to be 2.07.
In the case of `CN(C)CCn1c(=O)/c(=C/c2ccc(O)cc2)s/c1=C1/C(=O)Nc2ccccc21`, in experiment [1], the Ki is over 2.23 µM. For the same compound, the IC50 in experiment [2] came to 6.16 µM; in experiment [3], 4.28 µM. The “Ratio IC50” value in experiment [4] worked out at 1.44.
Taken in the same sequence, the figures for `CCN(CC)CCCn1c(=O)/c(=C/c2ccc3c(c2)OCO3)s/c1=C1/C(=O)Nc2ccccc21` were 0.48 µM, 7.95 µM, 1.44 µM and 5.53.
Regarding `CCN(CC)CCCn1c(=O)/c(=C/c2ccc3c(c2)OCO3)s/c1=C1/C(=O)Nc2ccc(C)cc21`, in experiment [1], the Ki was found to be 0.94 µM. Moreover, the IC50 was determined as 5.03 µM in experiment [2] and 2.04 µM in experiment [3]. In addition, the “Ratio IC50” value in experiment [4] is given as 2.46.
On to `CCN(CC)CCCn1c(=O)/c(=C/c2ccc3c(c2)OCO3)s/c1=C1/C(=O)Nc2ccc(F)cc21`, for which, in experiment [1], the Ki was over 2.23 µM. Also, the IC50 worked out at 12.5 µM in experiment [2] and 7.38 µM in experiment [3]. For the same compound, the “Ratio IC50” value in experiment [4] came out at 1.7.
In the case of `CCN(CC)CCCn1c(=O)/c(=C/c2ccc3c(c2)OCO3)s/c1=C1/C(=O)Nc2cc(F)ccc21`, the Ki in experiment [1] was over 2.23 µM. The IC50 was 2.98 µM in experiment [2] and 2.26 µM in experiment [3]. Also, the “Ratio IC50” value in experiment [4] is reported as 1.32.
Taken in the same sequence, the figures for `CCN(CC)CCCn1c(=O)/c(=C/c2ccc3c(c2)OCO3)s/c1=C1/C(=O)Nc2ccc(Cl)cc21` were 1.78 µM, 5.05 µM, 4.86 µM and 1.04.
Taken in the same sequence, the figures for `CCN(CC)CCCn1c(=O)/c(=C/c2ccc(F)c(F)c2)s/c1=C1/C(=O)Nc2ccc(F)cc21` were over 2.23 µM, 6.48 µM, 13.4 µM and 0.48.
`Cc1ccc2c(c1)/C(=c1\s/c(=C\c3ccc(O)cc3)c(=O)n1CCN(C)C)C(=O)N2`: the Ki in experiment [1] is over 2.23 µM. The 50% inhibitory concentration (IC50) in experiment [2] stood at 6.8 µM; in experiment [3] it was 6.74 µM. For the same compound, the “Ratio IC50” value in experiment [4] is given as 1.01.
As for `CCN(CC)CCCn1c(=O)/c(=C/c2ccc(F)cc2F)s/c1=C1/C(=O)Nc2cc(F)ccc21`, in experiment [1], the Ki came out at 1.01 µM. For the same compound, the IC50 in experiment [2] was determined as 4.12 µM; in experiment [3], 3.69 µM. Besides, the “Ratio IC50” value in experiment [4] was determined as 1.12.
For `CCN(CC)CCCn1c(=O)/c(=C/c2cc(OC)c(OC)c(OC)c2)s/c1=C1/C(=O)Nc2ccccc21`, the inhibition constant Ki in experiment [1] stood at 0.73 µM. Further, the concentration for half-maximal inhibition (IC50) in experiment [2] came to 6.65 µM; in experiment [3], 2.58 µM. In addition, in experiment [4], the “Ratio IC50” value was determined as 2.58.
Turning to `CCN(CC)CCCn1c(=O)/c(=C/c2cc(OC)c(OC)c(OC)c2)s/c1=C1/C(=O)Nc2ccc(C)cc21`, the Ki in experiment [1] was found to be 0.32 µM. The IC50 in experiment [2] is 2.02 µM; in experiment [3] it was 4.17 µM. In addition, the “Ratio IC50” value in experiment [4] is reported as 0.48.
Regarding `CCN(CC)CCCn1c(=O)/c(=C/c2cc(OC)c(OC)c(OC)c2)s/c1=C1/C(=O)Nc2ccc(F)cc21`, the Ki in experiment [1] worked out at 0.12 µM. Besides, the figures for the IC50 in experiment [2] and in experiment [3] were 2.86 µM and 2.39 µM, respectively. The “Ratio IC50” value in experiment [4] is 1.2.
With `CCN(CC)CCCn1c(=O)/c(=C/c2cc(OC)c(OC)c(OC)c2)s/c1=C1/C(=O)Nc2cc(F)ccc21`, the inhibitory constant (Ki) in experiment [1] was 0.47 µM. Also, the IC50 worked out at 1.64 µM in experiment [2] and 1.18 µM in experiment [3]. Further, the “Ratio IC50” value in experiment [4] stood at 1.39.
For `CCN(CC)CCCn1c(=O)/c(=C/c2cc(OC)c(OC)c(OC)c2)s/c1=C1/C(=O)Nc2ccc(Cl)cc21`, in that order: 0.22 µM, 1.65 µM, 0.82 µM and 2.02.
Regarding `CN(C)CCn1c(=O)/c(=C/c2ccc(O)cc2)s/c1=C1/C(=O)Nc2ccc(F)cc21`, the Ki in experiment [1] is 1.34 µM. Further, the IC50 is 6.14 µM in experiment [2] and 1.3 µM in experiment [3]. Besides, the “Ratio IC50” value in experiment [4] is 4.73.
As for `CN(C)CCn1c(=O)/c(=C/c2ccc(O)cc2)s/c1=C1/C(=O)Nc2cc(F)ccc21`, the Ki in experiment [1] was over 2.23 µM. The IC50 in experiment [2] is 7.16 µM; in experiment [3], 5.59 µM. In addition, the “Ratio IC50” value in experiment [4] came out at 1.28.
Taken in the same sequence, the figures for `CN(C)CCn1c(=O)/c(=C/c2ccc3c(c2)OCO3)s/c1=C1/C(=O)Nc2ccccc21` were over 2.23 µM, 0.78 µM, 1.32 µM and 0.59.
Consider `CCN(CC)CCCn1c(=O)/c(=C/c2ccc(O)cc2)s/c1=C1/C(=O)Nc2ccc(Cl)cc21`, for which, in experiment [1], the inhibition constant Ki is over 2.23 µM. The IC50 stood at 48.8 µM in experiment [2] and 24.6 µM in experiment [3]. The “Ratio IC50” value in experiment [4] came to 1.98.
Take `CCN(CC)CCCn1c(=O)/c(=C/c2ccccc2O)s/c1=C1\C(=O)Nc2ccc(C)cc21`: the Ki in experiment [1] was determined as 1.71 µM. Besides, the results for the IC50 in experiment [2] and in experiment [3] were 30.6 µM and 14.8 µM, respectively. The “Ratio IC50” value in experiment [4] was 2.07.
For `CN(C)CCn1c(=O)/c(=C/c2ccc(O)cc2)s/c1=C1\C(=O)Nc2ccccc21`, the Ki in experiment [1] is over 2.23 µM. Besides, the IC50 in experiment [2] came out at 6.16 µM; in experiment [3], 4.28 µM. For the same compound, the “Ratio IC50” value in experiment [4] is listed as 1.44.
`CCN(CC)CCCn1c(=O)/c(=C/c2ccc3c(c2)OCO3)s/c1=C1\C(=O)Nc2ccccc21`: the Ki in experiment [1] was 0.48 µM. The values for the IC50 in experiment [2] and in experiment [3] were 7.95 µM and 1.44 µM, respectively. Further, the “Ratio IC50” value in experiment [4] was 5.53.
With `CCN(CC)CCCn1c(=O)/c(=C/c2ccc3c(c2)OCO3)s/c1=C1\C(=O)Nc2ccc(C)cc21`, in experiment [1], the Ki was determined as 0.94 µM. The IC50 in experiment [2] is 5.03 µM; in experiment [3] it was 2.04 µM. Also, the “Ratio IC50” value in experiment [4] is recorded as 2.46.
In the case of `CCN(CC)CCCn1c(=O)/c(=C/c2ccc3c(c2)OCO3)s/c1=C1\C(=O)Nc2ccc(F)cc21`, the Ki in experiment [1] is over 2.23 µM. The values for the IC50 in experiment [2] and in experiment [3] were 12.5 µM and 7.38 µM, respectively. For the same compound, in experiment [4], the “Ratio IC50” value is given as 1.7.
For `CCN(CC)CCCn1c(=O)/c(=C/c2ccc3c(c2)OCO3)s/c1=C1\C(=O)Nc2cc(F)ccc21`, in that order: over 2.23 µM, 2.98 µM, 2.26 µM and 1.32.
Regarding `CCN(CC)CCCn1c(=O)/c(=C/c2ccc3c(c2)OCO3)s/c1=C1\C(=O)Nc2ccc(Cl)cc21`, the Ki in experiment [1] came to 1.78 µM. Also, the 50% inhibitory concentration (IC50) in experiment [2] worked out at 5.05 µM; in experiment [3], 4.86 µM. In experiment [4], the “Ratio IC50” value turned out to be 1.04.
For `CCN(CC)CCCn1c(=O)/c(=C/c2ccc(F)c(F)c2)s/c1=C1\C(=O)Nc2ccc(F)cc21`, in that order: over 2.23 µM, 6.48 µM, 13.4 µM and 0.48.
For the compound `Cc1ccc2c(c1)/C(=c1/s/c(=C\c3ccc(O)cc3)c(=O)n1CCN(C)C)C(=O)N2`, the Ki in experiment [1] was over 2.23 µM. The IC50 is 6.8 µM in experiment [2] and 6.74 µM in experiment [3]. In addition, in experiment [4], the “Ratio IC50” value was found to be 1.01.
On to `CCN(CC)CCCn1c(=O)/c(=C/c2ccc(F)cc2F)s/c1=C1\C(=O)Nc2cc(F)ccc21`, for which the Ki in experiment [1] was found to be 1.01 µM. In addition, the IC50 in experiment [2] was 4.12 µM; in experiment [3], 3.69 µM. Also, the “Ratio IC50” value in experiment [4] was found to be 1.12.
As to `CCN(CC)CCCn1c(=O)/c(=C/c2cc(OC)c(OC)c(OC)c2)s/c1=C1\C(=O)Nc2ccccc21`, the Ki in experiment [1] worked out at 0.73 µM. The IC50 in experiment [2] is 6.65 µM; in experiment [3], 2.58 µM. Further, the “Ratio IC50” value in experiment [4] is recorded as 2.58.
In the case of `CCN(CC)CCCn1c(=O)/c(=C/c2cc(OC)c(OC)c(OC)c2)s/c1=C1\C(=O)Nc2ccc(C)cc21`, the Ki in experiment [1] was found to be 0.32 µM. The IC50 came to 2.02 µM in experiment [2] and 4.17 µM in experiment [3]. For the same compound, the “Ratio IC50” value in experiment [4] is 0.48.
Turning to `CCN(CC)CCCn1c(=O)/c(=C/c2cc(OC)c(OC)c(OC)c2)s/c1=C1\C(=O)Nc2ccc(F)cc21`, the Ki in experiment [1] is 0.12 µM. Also, the IC50 in experiment [2] was found to be 2.86 µM; in experiment [3] it was 2.39 µM. Also, in experiment [4], the “Ratio IC50” value turned out to be 1.2.
For `CCN(CC)CCCn1c(=O)/c(=C/c2cc(OC)c(OC)c(OC)c2)s/c1=C1\C(=O)Nc2cc(F)ccc21`, the Ki in experiment [1] is 0.47 µM. The IC50 in experiment [2] was found to be 1.64 µM; in experiment [3], 1.18 µM. The “Ratio IC50” value in experiment [4] is listed as 1.39.
With `CCN(CC)CCCn1c(=O)/c(=C/c2cc(OC)c(OC)c(OC)c2)s/c1=C1\C(=O)Nc2ccc(Cl)cc21`, in experiment [1], the Ki was 0.22 µM. Further, the IC50 in experiment [2] worked out at 1.65 µM; in experiment [3] it was 0.82 µM. The “Ratio IC50” value in experiment [4] stood at 2.02.
Regarding `CN(C)CCn1c(=O)/c(=C/c2ccc(O)cc2)s/c1=C1\C(=O)Nc2ccc(F)cc21`, the Ki in experiment [1] was found to be 1.34 µM. Also, the IC50 in experiment [2] worked out at 6.14 µM; in experiment [3] it was 1.3 µM. Moreover, the “Ratio IC50” value in experiment [4] stood at 4.73.
Taken in the same sequence, the figures for `CN(C)CCn1c(=O)/c(=C/c2ccc(O)cc2)s/c1=C1\C(=O)Nc2cc(F)ccc21` were over 2.23 µM, 7.16 µM, 5.59 µM and 1.28.
`CN(C)CCn1c(=O)/c(=C/c2ccc3c(c2)OCO3)s/c1=C1\C(=O)Nc2ccccc21`: the Ki in experiment [1] is over 2.23 µM. Also, the IC50 was 0.78 µM in experiment [2] and 1.32 µM in experiment [3]. For the same compound, in experiment [4], the “Ratio IC50” value is 0.59.
On to `CCN(CC)CCCn1c(=O)/c(=C/c2ccc(O)cc2)s/c1=C1\C(=O)Nc2ccc(Cl)cc21`, for which the Ki in experiment [1] is over 2.23 µM. For the same compound, the figures for the IC50 in experiment [2] and in experiment [3] were 48.8 µM and 24.6 µM, respectively. The “Ratio IC50” value in experiment [4] is 1.98.
Take `COc1cccc2c1C(=O)c1c(O)c3c(c(O)c1C2=O)C[C@@](O)(C(=O)CO)C[C@@H]3O[C@H]1C[C@H](N)[C@H](O)[C@H](C)O1` [DOXORUBICIN]: in experiment [4], the “Ratio IC50” value was determined as 6.75.
